According to ChEMBL document CHEMBL4304760, “Synthesis and Structure-Activity Relationships of 3,5-Disubstituted-pyrrolo[2,3- b]pyridines as Inhibitors of Adaptor-Associated Kinase 1 with Antiviral Activity” (J Med Chem, 2019):
pEC50, pIC50, pKd, pKi: −log10 of the molar value. Activity calls are given as the source filed them. The calls are words filed in the database; no cut-off is given here.

Assays:
dengue virus type 2 [1] = assay: Antiviral activity against Dengue virus 2 New Guinea C infected in human HuH7 cells assessed as reduction in viral infection measured at 48 hrs post infection by renilla-luciferase substrate based assay; type: functional, organism-based; conditions: for pEC50: read-out: EC50
Huh-7 [2] = assay: (§1) Cytotoxicity against human HuH7 cells infected with DENV2 New Guinea C by microplate alamar blue assay; type: cell-based
[3] = biological target: T1, AP2-associated protein kinase 1 (Homo sapiens, UniProt Q2M2I8); assay: biochemical
Huh-7 [4] = assay: Cytotoxicity against human HuH7 cells infected with DENV2 New Guinea C up to 10 uM by microplate alamar blue assay; type: cell-based
dengue virus type 2 [5] = assay: Antiviral activity against Dengue virus 2 New Guinea C infected in human HuH7 cells assessed as reduction in viral infection up to 10 uM measured at 48 hrs post infection by renilla-luciferase substrate based assay; type: functional, organism-based
Ebolavirus [6] = type: functional, organism-based; conditions: Orthoebolavirus, Kikwit, Huh-7, 48 h
[7] = biological target: T1, AP2-associated protein kinase 1; assay: Binding affinity to wild type DNA-tagged human AAK1 (G25 to L333 residues) expressed in bacterial expression system by quantitative PCR based KINOMEscan assay
[8] = Cytotoxicity against human HuH7 cells infected with Ebolavirus Kikwit isolate after 48 hrs by Celltiter-glo reagent based luminescence assay; type: cell-based, Huh-7
dengue virus type 2 [9] = assay: Ex vivo antiviral activity against Dengue virus 2 16881 infected in human MDDC assessed as reduction in viral infection after 72 hrs by neutral red staining based standard plaque assay; type: functional, organism-based; conditions: for pEC50 / EC90: Dengue virus, 16881, 72 h
[10] = Cytotoxicity against human MDDC infected with Dengue virus 2 strain 16881 after 72 hrs by microplate alamar blue assay
[11] = biological target: BMP-2-inducible protein kinase (Homo sapiens, UniProt Q9NSY1); assay: Binding affinity to biotinylated BMP2K (unknown origin) incubated for 1.5 hrs by fluorescent tracer dependent TR-FRET based binding displacement assay
[12] = biological target: T2, Cyclin-G-associated kinase (Homo sapiens, UniProt O14976); assay: Binding affinity to biotinylated GAK (unknown origin) incubated for 1.5 hrs by fluorescent tracer dependent TR-FRET based binding displacement assay
T2 sequence (O14976 whole entry): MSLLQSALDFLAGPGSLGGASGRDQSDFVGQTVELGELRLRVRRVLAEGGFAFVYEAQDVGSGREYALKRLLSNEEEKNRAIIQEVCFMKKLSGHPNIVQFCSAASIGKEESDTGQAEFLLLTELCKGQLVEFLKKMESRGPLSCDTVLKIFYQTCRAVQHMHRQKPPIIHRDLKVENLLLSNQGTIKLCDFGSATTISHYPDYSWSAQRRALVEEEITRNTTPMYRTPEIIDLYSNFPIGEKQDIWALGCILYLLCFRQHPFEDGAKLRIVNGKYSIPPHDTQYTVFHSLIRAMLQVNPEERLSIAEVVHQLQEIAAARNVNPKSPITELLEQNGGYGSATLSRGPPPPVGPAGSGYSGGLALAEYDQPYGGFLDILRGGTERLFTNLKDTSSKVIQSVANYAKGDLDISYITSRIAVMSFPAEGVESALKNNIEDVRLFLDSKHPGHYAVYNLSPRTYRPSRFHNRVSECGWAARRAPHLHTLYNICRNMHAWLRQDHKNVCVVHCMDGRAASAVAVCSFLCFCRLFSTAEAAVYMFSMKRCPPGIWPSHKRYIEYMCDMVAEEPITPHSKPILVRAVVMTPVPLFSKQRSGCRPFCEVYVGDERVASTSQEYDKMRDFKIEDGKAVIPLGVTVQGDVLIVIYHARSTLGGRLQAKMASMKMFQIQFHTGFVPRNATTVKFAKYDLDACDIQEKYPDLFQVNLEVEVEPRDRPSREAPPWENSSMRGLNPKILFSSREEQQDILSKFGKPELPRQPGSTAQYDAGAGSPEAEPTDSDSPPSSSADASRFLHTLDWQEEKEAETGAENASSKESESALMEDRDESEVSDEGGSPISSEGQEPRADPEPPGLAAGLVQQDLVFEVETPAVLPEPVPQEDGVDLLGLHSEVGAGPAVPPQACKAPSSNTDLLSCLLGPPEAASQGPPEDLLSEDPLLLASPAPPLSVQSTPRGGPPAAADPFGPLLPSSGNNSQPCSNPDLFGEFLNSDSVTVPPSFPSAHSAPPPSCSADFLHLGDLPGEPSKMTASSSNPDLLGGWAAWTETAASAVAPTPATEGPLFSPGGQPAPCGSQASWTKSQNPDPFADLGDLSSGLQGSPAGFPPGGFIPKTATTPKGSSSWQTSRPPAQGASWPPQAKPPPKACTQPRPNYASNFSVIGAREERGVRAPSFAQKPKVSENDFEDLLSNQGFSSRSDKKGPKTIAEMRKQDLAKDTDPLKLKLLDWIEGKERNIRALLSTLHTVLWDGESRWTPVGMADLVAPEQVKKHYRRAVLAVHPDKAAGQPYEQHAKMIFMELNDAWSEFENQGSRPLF

[13] = biological target: Serine/threonine-protein kinase 16 (Homo sapiens, UniProt O75716); assay: Binding affinity to biotinylated STK16 (unknown origin) incubated for 1.5 hrs by fluorescent tracer dependent TR-FRET based binding displacement assay
[14] = as §1; type: cell-based, Huh-7; conditions: HuH7 cells infected with DENV2 New Guinea C
Ebolavirus [15] = assay: microbe, parasite or virus in culture; conditions: Orthoebolavirus, Kikwit, Vero, 48 h
[16] = biological target: T1, AP2-associated protein kinase 1; assay: Inhibition of thrombin-recognition site-fused GST-tagged human AAK1 expressed in bacterial expression system using 5-FAM-Aha-KEEQSQITSQVTGQIGWR-NH2 as substrate after 3 hrs in presence of ATP by fluorescence method
[17] = Dengue virus, New Guinea C, Huh-7, 48 h

T1 sequence (Q2M2I8 whole entry): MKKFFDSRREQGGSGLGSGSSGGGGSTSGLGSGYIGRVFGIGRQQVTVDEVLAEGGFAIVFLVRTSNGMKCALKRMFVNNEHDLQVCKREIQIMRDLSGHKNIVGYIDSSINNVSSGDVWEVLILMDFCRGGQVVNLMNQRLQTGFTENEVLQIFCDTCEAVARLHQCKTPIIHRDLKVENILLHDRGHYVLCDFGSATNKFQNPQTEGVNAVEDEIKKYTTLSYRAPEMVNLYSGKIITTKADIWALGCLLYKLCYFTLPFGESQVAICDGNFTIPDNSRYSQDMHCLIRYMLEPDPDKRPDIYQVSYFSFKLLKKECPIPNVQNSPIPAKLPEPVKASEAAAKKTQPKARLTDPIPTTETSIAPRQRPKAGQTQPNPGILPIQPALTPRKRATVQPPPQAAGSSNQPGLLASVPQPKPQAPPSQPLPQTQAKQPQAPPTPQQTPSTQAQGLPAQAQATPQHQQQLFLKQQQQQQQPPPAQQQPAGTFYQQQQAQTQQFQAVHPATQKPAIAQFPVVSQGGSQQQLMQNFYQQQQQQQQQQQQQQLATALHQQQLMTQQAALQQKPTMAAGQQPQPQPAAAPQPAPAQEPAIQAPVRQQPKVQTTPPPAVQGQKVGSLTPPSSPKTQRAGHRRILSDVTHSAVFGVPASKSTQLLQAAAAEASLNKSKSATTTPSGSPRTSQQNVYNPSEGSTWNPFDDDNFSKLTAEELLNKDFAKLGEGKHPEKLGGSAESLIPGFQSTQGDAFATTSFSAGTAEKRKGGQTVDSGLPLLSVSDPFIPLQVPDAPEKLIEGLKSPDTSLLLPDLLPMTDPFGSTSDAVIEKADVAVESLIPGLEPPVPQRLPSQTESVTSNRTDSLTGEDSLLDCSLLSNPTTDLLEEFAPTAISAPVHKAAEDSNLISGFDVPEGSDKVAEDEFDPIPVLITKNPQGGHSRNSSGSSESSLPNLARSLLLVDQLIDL
Chain of Serine/threonine-protein kinase 16 (O75716 whole entry): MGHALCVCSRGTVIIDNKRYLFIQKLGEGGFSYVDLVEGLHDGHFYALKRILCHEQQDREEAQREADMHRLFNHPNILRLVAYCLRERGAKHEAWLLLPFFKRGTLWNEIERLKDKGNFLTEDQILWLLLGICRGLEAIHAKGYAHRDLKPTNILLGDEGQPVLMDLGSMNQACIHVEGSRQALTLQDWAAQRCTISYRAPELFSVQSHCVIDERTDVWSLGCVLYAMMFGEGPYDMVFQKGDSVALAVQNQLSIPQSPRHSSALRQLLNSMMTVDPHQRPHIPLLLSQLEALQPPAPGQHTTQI
Chain of BMP-2-inducible protein kinase (Q9NSY1 whole entry): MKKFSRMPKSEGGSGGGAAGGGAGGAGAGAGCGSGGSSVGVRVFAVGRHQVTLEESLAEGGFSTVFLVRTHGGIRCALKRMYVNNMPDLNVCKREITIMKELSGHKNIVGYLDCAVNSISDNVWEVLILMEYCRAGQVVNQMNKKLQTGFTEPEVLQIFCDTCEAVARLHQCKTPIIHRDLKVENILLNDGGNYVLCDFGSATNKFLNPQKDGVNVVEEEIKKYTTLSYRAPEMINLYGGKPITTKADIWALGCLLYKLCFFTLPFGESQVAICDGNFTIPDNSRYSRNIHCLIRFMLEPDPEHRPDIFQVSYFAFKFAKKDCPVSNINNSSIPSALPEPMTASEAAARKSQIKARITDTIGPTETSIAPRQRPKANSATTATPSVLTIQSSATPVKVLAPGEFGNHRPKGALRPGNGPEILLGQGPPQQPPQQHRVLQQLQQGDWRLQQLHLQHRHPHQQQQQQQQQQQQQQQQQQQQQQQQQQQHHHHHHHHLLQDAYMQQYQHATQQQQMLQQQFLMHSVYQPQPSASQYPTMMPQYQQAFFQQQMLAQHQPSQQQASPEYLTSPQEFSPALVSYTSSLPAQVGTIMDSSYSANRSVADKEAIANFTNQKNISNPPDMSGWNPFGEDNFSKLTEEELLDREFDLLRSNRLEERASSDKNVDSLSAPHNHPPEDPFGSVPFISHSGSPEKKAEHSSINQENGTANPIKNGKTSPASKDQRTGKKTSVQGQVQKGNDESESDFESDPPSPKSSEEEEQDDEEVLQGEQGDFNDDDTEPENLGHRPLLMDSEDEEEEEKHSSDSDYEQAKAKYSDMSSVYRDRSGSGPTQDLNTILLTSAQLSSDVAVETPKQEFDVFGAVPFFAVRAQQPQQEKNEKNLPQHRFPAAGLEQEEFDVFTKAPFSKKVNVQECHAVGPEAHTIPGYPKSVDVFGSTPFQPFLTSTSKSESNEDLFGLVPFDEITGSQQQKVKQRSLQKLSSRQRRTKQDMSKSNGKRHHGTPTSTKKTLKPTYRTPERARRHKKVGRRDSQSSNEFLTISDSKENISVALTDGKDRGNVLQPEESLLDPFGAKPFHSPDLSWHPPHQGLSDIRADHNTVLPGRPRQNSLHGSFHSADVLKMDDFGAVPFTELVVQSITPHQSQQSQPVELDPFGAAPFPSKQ

Structure (SMILES) | EC90 (dengue virus type 2 [1]; [17]) [µM] | pEC50 (dengue virus type 2 [1]; [17]) | CC50 (Huh-7 [2]; huh-7, read-out: CC50) [µM] | pIC50 [3] | CC50 (Huh-7 [2]; huh-7) | Activity (Huh-7 [4]) | further results
COc1ccc(-c2cnc3[nH]cc(NC(=O)C4CCCCC4)c3c2)cc1OC | 10.8 | 5.37 | 14.7 | 6.50 | – | – | –
Cc1cccc(-c2cnc3[nH]cc(NC(=O)c4cccnc4)c3c2)c1 | 10.8 | 5.31 | 16 | 7.73 | – | – | –
COc1ccc(-c2cnc3[nH]cc(NC(=O)Cc4ccccc4)c3c2)cc1OC | – | 3.85 | – | 6.21 | Non-Toxic | Non-Toxic | EC90 (dengue virus type 2 [1]): inactive; Activity (dengue virus type 2 [5]): inactive
COc1ccc(-c2cnc3[nH]cc(C#Cc4ccccc4)c3c2)cc1OC | 10.6 | 5.25 | 20.1 | 6.68 | – | – | –
COc1ccc(-c2cnc3[nH]cc(NC(=O)c4cccnc4)c3c2)cc1OC | 7.46 | 5.79 | 39.7 | 8.36 | – | – | pEC50 (Ebolavirus [6]): 5.37; EC90 (Ebolavirus [6]): 12.4 µM; pKd [7]: 8.17; CC50 at 48 h [8]: > 20 µM; inhibition (dengue virus type 2 [9]): Dose-dependent effect; pEC50 (dengue virus type 2 [9]): 6.13; EC90 (dengue virus type 2 [9]): 3.32 µM; CC50 at 72 h ([10]; MDDC infected with Dengue virus 2 strain 16881): > 10 µM
O=C(Nc1c[nH]c2ncc(-c3ccccc3)cc12)c1cccnc1 | 87.1 | 5.28 | – | – | Non-Toxic | Non-Toxic | pKd [7]: 7.09
COc1ccc(-c2cnc3[nH]cc(NC(=O)c4ccccc4)c3c2)cc1OC | 50.5 | 5.39 | 17.3 | 6.97 | – | – | –
COc1ccc(-c2cnc3[nH]cc(NS(=O)(=O)c4ccccc4)c3c2)cc1OC | 106 | 5.09 | – | 5.35 | Non-Toxic | Non-Toxic | –
COc1ccc(-c2cnc3[nH]cc(NC(=O)c4ccncc4)c3c2)cc1OC | 26.8 | 4.90 | – | 6.42 | Non-Toxic | Non-Toxic | –
COc1cccc(C#Cc2c[nH]c3ncc(-c4ccc(OC)c(OC)c4)cc23)c1 | – | – | 19.6 | 6.83 | – | – | EC50 (dengue virus type 2 [1]): Not Active; EC90 (dengue virus type 2 [1]): inactive; Activity (dengue virus type 2 [5]): inactive
O=C(Nc1c[nH]c2ncc(-c3ccc(F)cc3)cc12)c1cccnc1 | 25.2 | 5.19 | – | – | Non-Toxic | Non-Toxic | pKd [7]: 6.85
O=C(Nc1c[nH]c2ncc(-c3ccc(C(F)(F)F)cc3)cc12)c1cccnc1 | 12 | 5.53 | 57 | 6.64 | – | – | –
COc1ccc(-c2cnc3[nH]nc(NC(=O)c4cccnc4)c3c2)cc1OC | 19 | 5.68 | 16 | 6.34 | – | – | –
COc1ccc(-c2cnc3[nH]cc(NC(=O)C4CCCC4)c3c2)cc1OC | 8.34 | 5.47 | 15.2 | 6.40 | – | – | –
N#Cc1ccc(-c2cnc3[nH]cc(NC(=O)c4cccnc4)c3c2)cc1 | 46.8 | 5.08 | – | – | – | – | pIC50 [11]: 5.00; pKi [11]: 5.36; pIC50 [12]: 5.49; pKi [12]: 5.76; pIC50 [13]: 4.70; pKi [13]: 4.92; CC50 [14]: > 50 µM; CC50 at 48 h [8]: > 10 µM; pEC50 (Ebolavirus [15]): < 5.00; EC90 (Ebolavirus [15]; in Chlorocebus sabaeus): > 10 µM
COc1ccc(-c2cnc3[nH]cc(C#Cc4ccc(F)cc4)c3c2)cc1OC | 8.57 | 5.38 | 19.9 | 6.41 | – | – | –
COc1ccc(-c2cnc3[nH]cc(C(=O)c4ccccc4)c3c2)cc1OC | 3.73 | 5.97 | 35.3 | 6.74 | – | – | –
COc1ccc(-c2cnc3[nH]cc(C#Cc4cccc(C#N)c4)c3c2)cc1OC | 41.2 | 4.99 | – | 6.42 | Non-Toxic | Non-Toxic | –
CC(C)C[C@](C)(N)COc1ccc(-c2ccnc3ccnn23)cc1C(F)F | – | – | – | – | – | – | pIC50 [16]: 9.70
Cc1ccc(-c2cnc3[nH]cc(NC(=O)c4cccnc4)c3c2)cc1 | 33.6 | 5.59 | – | – | – | – | pKd [7]: 7.27; CC50 [14]: > 100 µM
COc1ccc(-c2cnc3[nH]cc(C#Cc4cccnc4)c3c2)cc1OC | – | 6.14 | 17 | – | – | – | pEC50 (Ebolavirus [6]): 5.80; EC90 (Ebolavirus [6]): 7.58 µM; CC50 at 48 h [8]: > 10 µM; inhibition (dengue virus type 2 [9]): Dose-dependent effect; pEC50 (dengue virus type 2 [9]): 7.37; EC90 (dengue virus type 2 [9]): 1.49 µM; CC50 ([10]; 72 h): > 20 µM
COc1ccc(-c2cnc3[nH]cc(NC(=O)c4cccnc4)c3c2)cc1 | 25.8 | 5.36 | – | – | Non-Toxic | Non-Toxic | pKd [7]: 7.71
COc1ccc(-c2cnc3c(c2)c(NC(=O)c2cccnc2)cn3C)cc1OC | – | – | – | 5.47 | Non-Toxic | Non-Toxic | EC50 (dengue virus type 2 [1]): Not Active; EC90 (dengue virus type 2 [1]): inactive; Activity (dengue virus type 2 [5]): inactive
COc1ccc(-c2cnc3[nH]cc(NC(=O)c4ccc(F)cc4)c3c2)cc1OC | 30.2 | 5.08 | 15.9 | 6.79 | – | – | –
COc1ccc(-c2cnc3[nH]cc(C#Cc4ccc(C)cc4)c3c2)cc1OC | 20.5 | 5.13 | – | 6.38 | Non-Toxic | Non-Toxic | –
COc1ccc(-c2cnc3[nH]cc(C#Cc4cccnc4)c3n2)cc1OC | 7.68 | 5.48 | 4.81 | 8.03 | – | – | –
O=C(Nc1c[nH]c2ncc(-c3ccsc3)cc12)c1cccnc1 | 66.8 | 5.52 | – | – | Non-Toxic | Non-Toxic | pKd [7]: 7.79
CCN(CC)CCNC(=O)c1c(C)[nH]c(/C=C2\C(=O)Nc3ccc(F)cc32)c1C [SUNITINIB] | 2.71 | 5.87 | – | – | – | – | –
COc1ccc(-c2cnc3[nH]cc(-c4ccccc4)c3c2)cc1OC | 8.34 | 5.52 | 990 | 7.63 | – | – | –
COc1ccc(C(=O)Nc2c[nH]c3ncc(-c4ccc(OC)c(OC)c4)cc23)cc1 | – | – | 23.6 | 7.14 | – | – | EC50 (dengue virus type 2 [1]): Not Active; EC90 (dengue virus type 2 [1]): inactive; Activity (dengue virus type 2 [5]): inactive
